According to patent publication US20220387344A1, “COMPOSITIONS AND METHODS FOR INHIBITING COLLAGEN LOSS” (LYCORED LTD., priority 2019, published 2022):

Assays:
human neutrophils [1] = test: MPO activity of TNFα-activated neutrophils incubated overnight with single or combined phytonutrients; format: cell-based; conditions: sole addition
Method: 100 μl of 37° C. O-dianisidine hydrochloride solution (1 mg O-dianisidine, 10 ml phosphate buffer pH 6.0+0.0015% H2O2) were added to 100 μl supernatant in a 96-well plate immediately before the optical density was followed by the change of absorbance at 450 nm at 2 minute intervals on a Thermomax Microplate Reader (Molecular Devices, Melno Park, Calif.).
Tocopherol and phytosterol were added to 5×10^5 human neutrophils 20 min before addition of 100 ng/ml TNFα and maintained overnight at 37° C. in a humidified atmosphere containing 5% CO2. MPO activity was measured in the supernatant of the cultured neutrophils.
Zeta carotene, phytoene, tocopherol, phytosterol, or combinations thereof, were added to 5×10^5 human neutrophils 20 min before addition of 100 ng/ml TNFα and maintained overnight at 37° C. in humidified atmosphere containing 5% CO2. MPO activity was measured as escribed above.
The inventors examined the effect of multiple phytonutrients on MPO activity in stimulated neutrophils. The sole addition of tocopherol or phytosterol had no effect on the release and activity of MPO from neutrophils activated with TNFα (FIGS. 13A-13B).
The inventors also examined the effect of adding zeta carotene with either phytoene, a tocopherol, or a phytosterol, on MPO activity. […]

human neutrophils [2] = test: MMP-9 secretion from stimulated human neutrophils (ELISA); format: cell-based; conditions: agonist alone
Method: (§1) Blood was drawn from healthy volunteers. Neutrophils, at 95% purity were obtained by Ficoll-Hypaque centrifugation, dextran sedimentation, and hypotonic lysis of erythrocytes within 1 hour after blood was drawn. Cells were counted and their viability was determined by trypan blue exclusion. Human MMP-9 concentrations in cell culture supernatants were quantified by ELISA kits (R&D systems Minneapolis, Minn., USA). […] Neutrophils were activated by 100 ng/ml TNFα or 100 ng/ml IL8 that are released from the skin cells during exposure to UV and activated. In addition, neutrophils were activated with […] for comparison.

human neutrophils [3] = test: MPO secretion from stimulated human neutrophils; format: cell-based; conditions: agonist alone
Method: as §1, with “100 μl of 37° C. O-dianisidine hydrochloride solution (1 mg O-dianisidine, 10 ml phosphate buffer pH 6.0+0.0015% H2O2) were added to 100 μl supernatant” for “Human MMP-9 concentrations”, “a 96-well plate immediately before the optical density was followed” for “cell culture supernatants were quantified”, “the change of absorbance at 450 nm at 2 minute intervals on a Thermomax Microplate Reader (Molecular Devices, Melno Park, Calif.).” for “ELISA kits (R&D systems Minneapolis, Minn., USA).”

[4] = Plasma carotenoids after Lumenato capsules (bioavailability); format: in vivo; conditions: delivered within Lumenato capsules, plasma at 1, 2, 3 and 4 weeks post administration
From the text: The inventors have examined the bioavailability of carotenoids delivered within Lumenato capsules. The following carotenoids were quantified in the plasma at 1 week, 2 weeks, 3 weeks, and 4 weeks post administration. Phytoene, phytofluene and zeta-carotene which are the main carotenoids in Lumenato (the golden tomato extract) were absorbed well (FIG. 15).

NHDF cells = test: Collagen 1a1 secretion by NHDF cells under H2O2 oxidative stress (ELISA); format: cell-based, human; conditions: 50 μM H2O2
Method: Cells were incubated with Lumenato for 24 h and then hydrogen peroxide (H2O2) was added, and cells were incubated for additional 24 h to induce oxidative stress. The incubation medium was collected and the levels of collagen 1 a 1 protein secretion to the medium were analyzed using a specific ELISA detection kit.

[5] = system: KERTr human keratinocytes; test: Viability of KERTr keratinocytes under H2O2 oxidative stress (XTT); format: cell-based; conditions: H2O2 alone
Method: (§2) The inventors used hydrogen peroxide, H2O2, to induce oxidative stress in KERTr human keratinocytes, and analyzed the effects on cell number (cell death) and the secretion of MMP1. Cells viability was determined using the XTT cell proliferation kit, and MMP1 levels were measured by ELISA.

[6] = system: KERTr human keratinocytes; test: MMP1 secretion by KERTr keratinocytes under H2O2 oxidative stress (ELISA); format: cell-based; conditions: H2O2 alone
Method: as §2

[7] = 2 hr of activation, TNFα or IL8 100 ng/ml

tocopherol
effect on release and activity of MPO (human neutrophils [1]): no effect

TNFα
release of MMP-9 (human neutrophils [2]; [7]): 16.52 ± 0.5 ng/mL | release of MPO (human neutrophils [3]; 4 h of activation): 0.28 ± 0.001 ng/mL

CC(C)=CCC/C(C)=C/CC/C(C)=C/CC/C(C)=C/C=C/C=C(\C)CC/C=C(\C)CC/C=C(\C)CCC=C(C)C [phytoene]
absorption (plasma concentration) [4]: absorbed well

CC(C)=CCC/C(C)=C/CC\C(C)=C/C=C/C(C)=C/C=C/C=C(C)/C=C/C=C(/C)CC/C=C(\C)CCC=C(C)C [zeta carotene]
absorption (plasma concentration) ([4]; listed as Zeta carotene): absorbed extremely well | absorption (plasma concentration) ([4]; listed as zeta-carotene): absorbed well

formyl-Methionine-Leucine-Phenylalanine [fMLP]
release of MMP-9 (human neutrophils [2]; 30 min of activation): 10.41 ± 0.4 ng/mL | release of MMP-9 (human neutrophils [2]; 4 hr of activation): 13.45 ± 0.3 ng/mL | release of MPO (human neutrophils [3]; 30 min of activation): 0.54 ± 0.004 ng/mL

CC(C)=CCC/C(C)=C/CC/C(C)=C/C=C/C(C)=C/C=C/C=C(\C)CC/C=C(\C)CC/C=C(\C)CCC=C(C)C [phytofluene]
absorption (plasma concentration) [4]: absorbed well

phytosterol
effect on release and activity of MPO (human neutrophils [1]): no effect

OO [H2O2, hydrogen peroxide]
reduction in collagen 1a1 secretion (NHDF cells): about 10 fold | cell number (cell death) [5]: dose dependent cell death | secretion of MMP1 [6]: increased secretion of MMP1

IL8: interleukin 8, agonist used to stimulate neutrophils
release of MMP-9 (human neutrophils [2]; [7]): 9.12 ± 0.2 ng/mL | release of MMP-9 (human neutrophils [2]; 4 hr of activation): 17.86 ± 0.4 ng/mL | release of MPO (human neutrophils [3]; 4 h of activation): 0.4 ± 0.08 ng/mL
